Key:
Hp 0 mice = test: Chronic supplementation with vitamin E, renal hypertrophy in Hp 0 mice; format: in vivo, mouse
Method: (§1) Chronic supplementation with vitamin E. Wild-type or Hp 0 mice (n=5 in each group) were treated for 7 months with placebo (water) or vitamin E (Merck, racemic alpha-tocopherol acetate) at a concentration of 40 mg/kg/day administered daily in the drinking water from 4 weeks of age.
(§2) Preparation of renal tissue for morphometric and histochemical analysis. Mice were sacrificed with intraperitoneal injection of pentabarbitone sodium. Kidneys were excised and weighed and the half-middle portion was fixed in 4% buffered BP formaldehyde solution (Gadot, Netanya, Israel) and embedded in paraffin. For both the morphometric and histochemical analysis, there were four mice in each of the six groups (wild type, Hp 0, and Hp 2, with and without diabetes).
(§3) Statistical analysis. Values are reported as the mean±SEM. Comparisons between groups were performed using two-way ANOVA under a general linear model, with Hp phenotype as one factor and time, presence of diabetes, or treatment with vitamin E as the second factor. Pairwise comparisons were carried out using the Fisher's protected least significant difference (PLSD) test. A p-value of less than 0.05 was taken as being statistically significant. Statistical analyses were performed using the SPSS statistical software version 11.5 (Chicago, Ill.). […]

Wild-type mice = test: Chronic supplementation with vitamin E, renal mass in wild-type mice; format: in vivo, mouse; details: WT mice, 40 mg/kg/day vitamin E orally from 4 weeks, sacrificed at 8 months, mean±SEM, n=5
Method: as §1, §2, §3

CC(=O)Oc1c(C)c(C)c2c(c1C)CC[C@@](C)(CCC[C@H](C)CCC[C@H](C)CCCC(C)C)O2 (racemic) [Vitamin E, racemic alpha-tocopherol acetate]
RM/BM (renal mass normalized for body weight) (Hp 0 mice; 40 mg/kg/day vitamin E orally from 4 weeks, sacrificed at 8 months, mean±SEM, n=5): 11.01 ± 0.24 mg/g | renal mass in Hp 0 animals receiving vitamin E compared to Hp 0 mice who did not receive vitamin E (Hp 0 mice; vitamin E for 7 months): reduced | RM/BM (renal mass normalized for body weight) (Wild-type mice): 11.42 ± 0.98 mg/g
